Paper PMC5994430, “Mitochondrial Delivery of Phenol Substructure Triggers Mitochondrial Depolarization and Apoptosis of Cancer Cells” (Frontiers in Pharmacology, 2018)

Columns and labels:
BEAS-2B cells [1] = assay: Cell cycle analysis (propidium iodide flow cytometry); format: cell-based, Human; conditions: 0.1 μM, 24 h
Procedure: (§1) 1 × 10^4 cells were harvested, washed with PBS, treated with 0.25 mg/ml RNAse and stained for 15 min with 50 μg/ml propidium iodide. Cell cycle distribution was analyzed by Guava® easyCyte flow cytometer (Millipore, Billerica, MA, United States), using the InCyte software (Millipore).
(§2) FIGURE 7 Effects of phenol TPP-derivatives on mitochondria-dependent apoptosis. A549 and BEAS-2B cells were incubated 24 h in fresh medium (ctrl) or in medium containing 0.1 μM of 1 or 2. (A,B) The activity of caspase 9 and 3 was measured fluorimetrically, in duplicates. Data are means ± SD (n = 3). For both panels: ^∗p < 0.001 vs. A549 ctrl cells; °p < 0.001 for BEAS-2B cells vs. the corresponding condition in A549 cells. (C,D) Cell cycle distribution, measured in duplicates. Data are means ± SD (n = 3). For both panels: ^∗p < 0.001 vs. A549 ctrl cells: °p < 0.001 for BEAS-2B cells vs. the corresponding condition in A549 cells. (E) Bright field microscope analysis of cells. Magnification: 60 × objective (0.52 numerical aperture); 10 × ocular lens. Bar: 20 μM. The micrographs are representative of three experiments with similar results.

A549 cells [2] = assay: as above; format: cell-based, Human; conditions: 0.1 μM, 24 h
Procedure: as §1, §2

PGC-1α = assay: Immunoblot of nuclear PGC-1α in A549 cells; format: cell-based, Human; conditions: 0.1 μM, 4 h
BEAS-2B cells [3] = assay: Bright field morphological analysis; format: cell-based, Human; conditions: 0.1 μM, 24 h
Source text: (§3) Human colon cancer HT29 cells, colon-derived normal fibroblast CCD-18Co cells, lung cancer A549 cells, normal human bronchial epithelial (immortalized with adenovirus 12-SV40 virus hybrid Ad12SV40) BEAS-2B cells, breast cancer MDA-MB-231 cells, normal breast epithelial MCF10A cells, human osteosarcoma U-2OS cells were purchased from ATCC (Manassas, VA, United States). Primary osteoblasts were generated as reported previously ([Buondonno et al., 2016]). HMM and HMC were primary cells stabilized in culture as described ([Aldieri et al., 2004]). The use of primary cells was approved by Ethical Committee of the San Luigi Gonzaga Hospital, Orbassano, (protocol #126/2016). All subjects gave written informed consent in accordance with the Declaration of Helsinki. Cells were maintained in medium supplemented with 10% v/v fetal bovine serum, 1% v/v penicillin-streptomycin, 1% v/v L-glutamine. Morphological analysis was performed with a bright field microscope (Leica Microsystems, Wetzlar, Germany). At least 5 fields/experimental condition were examined.
as §2

A549 cells [4] = assay: Bright field morphological analysis; format: cell-based, Human; conditions: 0.1 μM, 24 h, compared with untreated cells
Source text: as §3, §2

[5] = tested on: HMC (human mesothelial cells); assay: Cell viability (neutral red), IC50; format: cell-based; conditions: HMC primary mesothelial cells, CompuSyn
Source text: as §3
(§4) The extracellular release of LDH, considered an index of cell damage and necrosis, was measured spectrophotometrically, as reported ([Riganti et al., 2013b]). The extracellular medium was centrifuged at 12,000 × g for 15 min to pellet cellular debris, the cells were washed with fresh medium, detached with 0.01% trypsin/EDTA, re-suspended in 0.2 ml of 82.3 mM triethanolamine phosphate-HCl (pH 7.6), and sonicated on ice with two 10-sec bursts. LDH activity was measured in the extracellular medium and in the cell lysate: 50 μl of extracellular medium or 5 μl of cell lysate were incubated at 37°C with 5 mM NADH. The reaction was started by adding 20 mM pyruvic acid and was monitored for 6 min, measuring absorbance at 340 nm using a Synergy HT Multi-Detection Microplate Reader (Bio-Tek Instruments, Winoosky, MT, United States). The reaction kinetics were linear throughout the time of measurement. Both intracellular and extracellular enzyme activities were expressed as μmol NADH oxidized/min/dish. The results were expressed as percentage of extracellular LDH versus total (intracellular plus extracellular) LDH. Cell viability was measured by the neutral red staining method, as previously reported ([Riganti et al., 2015b]). The absorbance of untreated cells was considered as 100% viability; the results were expressed as percentage of viable cells versus untreated cells. IC50 was calculated with the CompuSyn software^1.

CCD-18Co cells = assay: Cell viability (neutral red), IC50; format: cell-based; conditions: Homo sapiens, CCD-18Co colon-derived normal fibroblasts, CompuSyn
Source text: as §3, §4

MDA-MB-231 cells = assay: Cell viability (neutral red), IC50; format: cell-based; conditions: Homo sapiens, MDA-MB-231 breast cancer cells, CompuSyn
Source text: as §3, §4

MCF10A cells = assay: Cell viability (neutral red), IC50; format: cell-based; conditions: Homo sapiens, MCF-10A, MCF10A normal breast epithelial cells, CompuSyn
Source text: as §3, §4

[6] = tested on: HMM (human malignant mesothelioma) cells; assay: Cell viability (neutral red), IC50; format: cell-based; conditions: HMM primary malignant mesothelioma cells, CompuSyn
Source text: as §3, §4

HT29 cells = assay: Cell viability (neutral red), IC50; format: cell-based; conditions: Homo sapiens, HT-29, HT29 colon cancer cells, CompuSyn
Source text: as §3, §4

Primary osteoblasts = assay: Cell viability (neutral red), IC50; format: cell-based; conditions: Homo sapiens, Osteoblast, CompuSyn
Source text: as §3, §4

BEAS-2B cells [7] = assay: Extracellular LDH release; format: cell-based, Human; conditions: 0.1, 1 or 10 μM, 24 h
Procedure: as §4
(§5) Supplementary Figure 3. Cytotoxic effects of compound 15 and 16. A549 and BEAS-2B cells were grown in fresh medium (0) or incubated with 0.1, 1 or 10 µM of 15 and 16 for 24 h (panel A) or 72 h (panel B). A. The release of LDH was measured spectrophotometrically in duplicates. Data are means ± SD (n=3). B. Cell viability was measured spectrophotometrically in quadruplicates. Data are […]
(§6) (1 picture or pasted object on this page, not shown here)

A549 cells [8] = assay: Extracellular LDH release; format: cell-based, Human; conditions: 0.1, 1 or 10 μM, 24 h
Procedure: as §4, §5, §6

Row | Compound | cell cycle distribution (BEAS-2B cells [1]) | percentage of cells in S-phase (A549 cells [2]) | percentage of cells in the sub-Go phase (A549 cells [2]) | nuclear level of PGC-1α (PGC-1α) | cell morphology (BEAS-2B cells [3]) | cell morphology (A549 cells [4]) | IC50 [5] [µM] | IC50 (CCD-18Co cells) [µM] | IC50 (MDA-MB-231 cells) [µM] | IC50 (MCF10A cells) [µM] | IC50 [6] [µM] | IC50 (HT29 cells) [µM] | IC50 (Primary osteoblasts) [µM] | release of LDH (BEAS-2B cells [7]) | release of LDH (A549 cells [8])
1 | CC(=O)Oc1ccc(C[P+](c2ccccc2)(c2ccccc2)c2ccccc2)cc1.[Br-] [Compound 1] | no change | reduced percentage | increased | reduced | decreased cell density without appreciable morphological signs of apoptosis | reduced cell number and a clear round-shaped morphology | 7.37 ± 0.89 | 18.2 ± 1.29 | 8.32 ± 1.25 | 7.52 ± 0.43 | 4.39 ± 0.35 | 4.45 ± 0.78 | 6.46 ± 0.83 |  | 
2 | O=C(Oc1ccc(C[P+](c2ccccc2)(c2ccccc2)c2ccccc2)cc1C(F)(F)F)c1ccccc1.[Br-] [Compound 2] | no change | reduced percentage | increased | reduced | decreased cell density without appreciable morphological signs of apoptosis | reduced cell number and a clear round-shaped morphology | 39.1 ± 4.34 | 7.89 ± 0.36 | 0.34 ± 0.11 | 6.32 ± 0.41 | 0.82 ± 0.07 | 3.81 ± 0.47 | 3.41 ± 0.73 |  | 
3 | Oc1ccc(C[P+](c2ccccc2)(c2ccccc2)c2ccccc2)cc1.[Br-] [Compound 15] |  |  |  |  |  |  |  |  |  |  |  |  |  | did not increase the release of LDH | did not increase the release of LDH
4 | Oc1ccc(C[P+](c2ccccc2)(c2ccccc2)c2ccccc2)cc1C(F)(F)F.[Br-] [Compound 16] |  |  |  |  |  |  |  |  |  |  |  |  |  | did not increase the release of LDH | did not increase the release of LDH
